From patent US8404643B2, “Metastin derivatives and use thereof” (priority 2005, dated 2013)
Numbered stars: 1 amine (or outer) side, 2 acyl side, 3 side chain; on linkers, the order of the positions; unused ones are H or OH. Square brackets hold non-standard residues; d marks the D form. Peptide text beside a SMILES is read from it. * marks the point of attachment. Nip(3R) = O=C([C@@H]1CCCN([*:1])C1)[*:2]; Phe(4-Cl) = N[C@@H](Cc1ccc(Cl)cc1)C(=O)O; Phe(3-F) = N[C@@H](Cc1cccc(F)c1)C(=O)O; Phe(3-Me) = Cc1cccc(C[C@H](N)C(=O)O)c1; Phe(4-Me) = Cc1ccc(C[C@H](N)C(=O)O)cc1; Phe(2-F) = N[C@@H](Cc1ccccc1F)C(=O)O; Arg(Me) = CNC(=N)NCCC[C@H](N)C(=O)O; Dap(CONH2) = NC(=O)NC[C@H](N)C(=O)O; Hyp = O=C(O)[C@@H]1C[C@@H](O)CN1; Pip(4-aza) = O=C(O)[C@@H]1CNCCN1; Decanoyl = CCCCCCCCCC(=O)*; 2Abz = Nc1ccccc1C(=O)O; Aib = CC(C)(N)C(=O)O; Ahx = NCCCCCC(=O)O; azaGly = NNC(=O)O; Sar = CNCC(=O)O

These molecules were tested against T1, hOT7T175 (Homo sapiens, UniProt Q969F8) (assay: Assay for intracellular Ca ion level-increasing activity using FLIPR). Settings: hOT7T175/CHO cells, relative to Metastin (1-54).
T1 construct: expressed in transfected cells
T1 sequence (Q969F8 whole entry L364H): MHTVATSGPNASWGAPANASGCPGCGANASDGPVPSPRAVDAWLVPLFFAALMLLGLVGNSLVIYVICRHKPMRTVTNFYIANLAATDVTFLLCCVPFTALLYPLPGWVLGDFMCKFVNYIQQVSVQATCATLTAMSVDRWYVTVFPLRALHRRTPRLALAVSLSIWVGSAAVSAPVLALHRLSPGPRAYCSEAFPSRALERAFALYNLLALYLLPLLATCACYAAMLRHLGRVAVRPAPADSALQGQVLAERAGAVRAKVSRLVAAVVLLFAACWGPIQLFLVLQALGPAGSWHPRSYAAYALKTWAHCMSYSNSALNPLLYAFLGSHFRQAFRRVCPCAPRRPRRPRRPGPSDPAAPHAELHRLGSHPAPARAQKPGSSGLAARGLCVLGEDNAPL
Assay type: cell-based
Summary of the method: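 CHO/dhfr− cells stably transfected with hOT7T175, selected for high metastin response, loaded with Fluo3-AM for 1 h at 37 °C in HANKS/HBSS (pH 7.4) with probenecid. Peptides were diluted from 1×10^−3 M DMSO stock into HANKS/HBSS with 2.5 mM probenecid, 0.2% BSA, 0.1% CHAPS; intracellular Ca rise read by FLIPR.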

Specific Activity: intracellular Ca ion level-increasing activity [specific activity to Metastin (1-54)] | Molecule
0.8 | CNC(=N)NCCC[C@H](NC(=O)[C@H](CC(C)C)NC(=O)NNC(=O)[C@H](Cc1ccc(C)cc1)NC(=O)[C@@H](NC(=O)[C@H](CC(N)=O)NC(=O)[C@@H]1C[C@@H](O)CN1C(=O)[C@@H](Cc1ccc(O)cc1)NC(C)=O)[C@@H](C)O)C(=O)N[C@@H](Cc1c[nH]c2ccccc12)C(N)=O [Compound No. 874, Ac-D-Tyr-Hyp-Asn-Thr-Phe(4Me)-AzaGly-Leu-Arg(Me)-Trp-NH2] (Ac-[dY][Hyp]NT[Phe(4-Me)][azaGly]L[Arg(Me)]W-NH2)
1.7 | CNC(=N)NCCC[C@H](NC(=O)[C@H](CC(C)C)NC(=O)NNC(=O)[C@H](Cc1ccccc1)NC(=O)[C@@H](NC(=O)[C@H](CC(N)=O)NC(=O)[C@@H]1CNCCN1C(=O)[C@@H](Cc1ccc(O)cc1)NC(C)=O)[C@@H](C)O)C(=O)N[C@@H](Cc1c[nH]c2ccccc12)C(N)=O [Compound No. 760, Ac-D-Tyr-Pzc(2)-Asn-Thr-Phe-AzaGly-Leu-Arg(Me)-Trp-NH2] (Ac-[dY][Pip(4-aza)]NTF[azaGly]L[Arg(Me)]W-NH2)
3.7 | CNC(=N)NCCC[C@H](NC(=O)[C@H](CC(C)C)NC(=O)NNC(=O)[C@H](Cc1ccccc1)NC(=O)[C@@H](NC(=O)[C@H](CC(N)=O)NC(=O)CCCCCNC(C)=O)[C@@H](C)O)C(=O)N[C@@H](Cc1c[nH]c2ccccc12)C(N)=O [Compound No. 713, Ac-Acp-Asn-Thr-Phe-AzaGly-Leu-Arg(Me)-Trp-NH2] (Ac-[Ahx]NTF[azaGly]L[Arg(Me)]W-NH2)
1.5 | CNC(=N)NCCC[C@H](NC(=O)[C@H](CC(C)C)NC(=O)NNC(=O)[C@H](Cc1ccccc1F)NC(=O)[C@@H](NC(=O)[C@H](CC(N)=O)NC(=O)[C@H](Cc1c[nH]c2ccccc12)NC(=O)[C@@H](Cc1ccc(O)cc1)NC(C)=O)[C@@H](C)O)C(=O)N[C@@H](Cc1c[nH]c2ccccc12)C(N)=O [Compound No. 764, Ac-D-Tyr-Trp-Asn-Thr-Phe(2F)-AzaGly-Leu-Arg(Me)-Trp-NH2] (Ac-[dY]WNT[Phe(2-F)][azaGly]L[Arg(Me)]W-NH2)
1.0 | CNC(=N)NCCC[C@H](NC(=O)[C@H](CC(C)C)NC(=O)NNC(=O)[C@H](Cc1ccccc1)NC(=O)[C@@H](NC(=O)[C@H](CNC(N)=O)NC(=O)[C@@H](Cc1c[nH]c2ccccc12)NC(=O)[C@@H](Cc1ccc(O)cc1)NC(C)=O)[C@@H](C)O)C(=O)N[C@@H](Cc1c[nH]c2ccccc12)C(N)=O [Compound No. 717, Ac-D-Tyr-D-Trp-Alb-Thr-Phe-AzaGly-Leu-Arg(Me)-Trp-NH2] (Ac-[dY][dW][Dap(CONH2)]TF[azaGly]L[Arg(Me)]W-NH2)
1.1 | CNC(=N)NCCC[C@H](NC(=O)[C@H](CC(C)C)NC(=O)NNC(=O)[C@H](Cc1ccccc1)NC(=O)[C@@H](NC(=O)[C@H](CC(N)=O)NC(=O)[C@@H]1C[C@@H](O)CN1C(=O)[C@H](Cc1ccc(O)cc1)NC(C)=O)[C@@H](C)O)C(=O)N[C@@H](Cc1c[nH]c2ccccc12)C(N)=O [Compound No. 899, Ac-Tyr-Hyp-Asn-Thr-Phe-AzaGly-Leu-Arg(Me)-Trp-NH2] (Ac-Y[Hyp]NTF[azaGly]L[Arg(Me)]W-NH2)
0.5 | CNC(=N)NCCC[C@H](NC(=O)[C@H](CC(C)C)NC(=O)NNC(=O)[C@H](Cc1ccccc1)NC(=O)[C@H](C)NC(=O)[C@H](CC(N)=O)NC(=O)[C@@H]1C[C@@H](O)CN1C(=O)[C@@H](Cc1ccc(O)cc1)NC(C)=O)C(=O)N[C@@H](Cc1c[nH]c2ccccc12)C(N)=O [Compound No. 814, Ac-D-Tyr-Hyp-Asn-Ala-Phe-AzaGly-Leu-Arg(Me)-Trp-NH2] (Ac-[dY][Hyp]NAF[azaGly]L[Arg(Me)]W-NH2)
7.2 | CCCCCCCCCC(=O)N[C@@H](CC(N)=O)C(=O)N[C@H](C(=O)N[C@@H](Cc1ccccc1)C(=O)NNC(=O)N[C@@H](CC(C)C)C(=O)N[C@@H](CCCNC(=N)NC)C(=O)N[C@@H](Cc1c[nH]c2ccccc12)C(N)=O)[C@@H](C)O [Compound No. 710, Decanoyl-Asn-Thr-Phe-AzaGly-Leu-Arg(Me)-Trp-NH2] (Decanoyl-NTF[azaGly]L[Arg(Me)]W-NH2)
8.8 | CNC(=N)NCCC[C@H](NC(=O)[C@H](CC(C)C)NC(=O)NNC(=O)[C@H](Cc1ccccc1)NC(=O)[C@@H](NC(=O)[C@H](CC(N)=O)NC(=O)CN(C)C(=O)[C@@H](Cc1ccc(O)cc1)NC(C)=O)[C@@H](C)O)C(=O)N[C@@H](Cc1c[nH]c2ccccc12)C(N)=O [Compound No. 731, Ac-D-Tyr-Sar-Asn-Thr-Phe-AzaGly-Leu-Arg(Me)-Trp-NH2] (Ac-[dY][Sar]NTF[azaGly]L[Arg(Me)]W-NH2)
0.9 | CNC(=N)NCCC[C@H](NC(=O)[C@H](CC(C)C)NC(=O)NNC(=O)[C@H](Cc1ccccc1)NC(=O)[C@@H](NC(=O)[C@@H](CC(N)=O)NC(=O)[C@@H]1C[C@@H](O)CN1C(=O)[C@@H](Cc1ccc(O)cc1)NC(C)=O)[C@@H](C)O)C(=O)N[C@@H](Cc1c[nH]c2ccccc12)C(N)=O [Compound No. 844, Ac-D-Tyr-Hyp-D-Asn-Thr-Phe-AzaGly-Leu-Arg(Me)-Trp-NH2] (Ac-[dY][Hyp][dN]TF[azaGly]L[Arg(Me)]W-NH2)
4.1 | Ac-D-Tyr-Aze(3)-Asn-Thr-Phe-AzaGly-Leu-Arg(Me)-Trp-NH2 [Compound No. 730]
0.6 | CNC(=N)NCCC[C@H](NC(=O)[C@H](CC(C)C)NC(=O)NNC(=O)[C@H](Cc1ccc(Cl)cc1)NC(=O)[C@@H](NC(=O)[C@H](CC(N)=O)NC(=O)[C@H](Cc1c[nH]c2ccccc12)NC(=O)[C@@H](Cc1ccc(O)cc1)NC(C)=O)[C@@H](C)O)C(=O)N[C@@H](Cc1c[nH]c2ccccc12)C(N)=O [Compound No. 768, Ac-D-Tyr-Trp-Asn-Thr-Phe(4Cl)-AzaGly-Leu-Arg(Me)-Trp-NH2] (Ac-[dY]WNT[Phe(4-Cl)][azaGly]L[Arg(Me)]W-NH2)
0.7 | CNC(=N)NCCC[C@H](NC(=O)[C@H](CC(C)C)NC(=O)NNC(=O)[C@H](Cc1cccc(C)c1)NC(=O)[C@@H](NC(=O)[C@H](CC(N)=O)NC(=O)[C@@H]1C[C@@H](O)CN1C(=O)[C@@H](Cc1ccc(O)cc1)NC(C)=O)[C@@H](C)O)C(=O)N[C@@H](Cc1c[nH]c2ccccc12)C(N)=O [Compound No. 872, Ac-D-Tyr-Hyp-Asn-Thr-Phe(3Me)-AzaGly-Leu-Arg(Me)-Trp-NH2] (Ac-[dY][Hyp]NT[Phe(3-Me)][azaGly]L[Arg(Me)]W-NH2)
2.2 | CNC(=N)NCCC[C@H](NC(=O)[C@H](CC(C)C)NC(=O)NNC(=O)[C@H](Cc1ccccc1)NC(=O)[C@@H](NC(=O)[C@H](CC(N)=O)NC(=O)[C@@H]1CCCN(C(=O)[C@@H](Cc2ccc(O)cc2)NC(C)=O)C1)[C@@H](C)O)C(=O)N[C@@H](Cc1c[nH]c2ccccc12)C(N)=O [Compound No. 722, Ac-D-Tyr-Pic(3)-Asn-Thr-Phe-AzaGly-Leu-Arg(Me)-Trp-NH2] (Ac-[dY][Nip(3R)]NTF[azaGly]L[Arg(Me)]W-NH2)
3.4 | CNC(=N)NCCC[C@H](NC(=O)[C@H](CC(C)C)NC(=O)NNC(=O)[C@H](Cc1ccccc1F)NC(=O)[C@@H](NC(=O)[C@H](CC(N)=O)NC(=O)C(C)(C)NC(=O)[C@@H](Cc1ccc(O)cc1)NC(C)=O)[C@@H](C)O)C(=O)N[C@@H](Cc1c[nH]c2ccccc12)C(N)=O [Compound No. 784, Ac-D-Tyr-Aib-Asn-Thr-Phe(2F)-AzaGly-Leu-Arg(Me)-Trp-NH2] (Ac-[dY][Aib]NT[Phe(2-F)][azaGly]L[Arg(Me)]W-NH2)
1.1 | CNC(=N)NCCC[C@H](NC(=O)[C@H](CC(C)C)NC(=O)NNC(=O)[C@H](Cc1ccccc1)NC(=O)[C@@H](NC(=O)[C@H](Cc1cnc[nH]1)NC(=O)[C@@H]1C[C@@H](O)CN1C(=O)[C@@H](Cc1ccc(O)cc1)NC(C)=O)[C@@H](C)O)C(=O)N[C@@H](Cc1c[nH]c2ccccc12)C(N)=O [Compound No. 816, Ac-D-Tyr-Hyp-His-Thr-Phe-AzaGly-Leu-Arg(Me)-Trp-NH2] (Ac-[dY][Hyp]HTF[azaGly]L[Arg(Me)]W-NH2)
2.6 | CNC(=N)NCCC[C@H](NC(=O)[C@H](CC(C)C)NC(=O)NNC(=O)[C@H](Cc1cccc(F)c1)NC(=O)[C@@H](NC(=O)[C@H](CC(N)=O)NC(=O)[C@@H]1C[C@@H](O)CN1C(=O)[C@@H](Cc1ccc(O)cc1)NC(C)=O)[C@@H](C)O)C(=O)N[C@@H](Cc1c[nH]c2ccccc12)C(N)=O [Compound No. 765, Ac-D-Tyr-Hyp-Asn-Thr-Phe(3F)-AzaGly-Leu-Arg(Me)-Trp-NH2] (Ac-[dY][Hyp]NT[Phe(3-F)][azaGly]L[Arg(Me)]W-NH2)
2.0 | CNC(=N)NCCC[C@H](NC(=O)[C@H](CC(C)C)NC(=O)NNC(=O)[C@H](Cc1ccccc1)NC(=O)[C@@H](NC(=O)[C@H](CC(N)=O)NC(=O)[C@@H]1C[C@@H](O)CN1C(=O)[C@@H](Cc1ccc(O)cc1)NC(C)=O)[C@@H](C)O)C(=O)N[C@@H](Cc1c[nH]c2ccccc12)C(N)=O [Compound No. 723, Ac-D-Tyr-Hyp-Asn-Thr-Phe-AzaGly-Leu-Arg(Me)-Trp-NH2] (Ac-[dY][Hyp]NTF[azaGly]L[Arg(Me)]W-NH2)

Molecule | Specific Activity: intracellular Ca ion level-increasing activity [specific activity to Metastin (1-54)]
CNC(=N)NCCC[C@H](NC(=O)[C@H](CC(C)C)NC(=O)NNC(=O)[C@H](Cc1ccccc1)NC(=O)[C@@H](NC(=O)[C@H](CC(N)=O)NC(=O)c1ccccc1NC(=O)[C@@H](Cc1ccc(O)cc1)NC(C)=O)[C@@H](C)O)C(=O)N[C@@H](Cc1c[nH]c2ccccc12)C(N)=O [Compound No. 728, Ac-D-Tyr-Abz(2)-Asn-Thr-Phe-AzaGly-Leu-Arg(Me)-Trp-NH2] (Ac-[dY][2Abz]NTF[azaGly]L[Arg(Me)]W-NH2) | 3.2
